Where a SMILES comes first, the peptide text is derived from it. Bridges are numbered along the chain shown (N, C = ends). [ ]: non-standard residue; d: D form. The star is where a group is joined. Phe(4-COOH) = N[C@@H](Cc1ccc(C(=O)O)cc1)C(=O)O; Bip = N[C@@H](Cc1ccc(-c2ccccc2)cc1)C(=O)O; Phe(3-Me) = Cc1cccc(C[C@H](N)C(=O)O)c1; Val(3-OH) = CC(C)(O)[C@H](N)C(=O)O; 4Pal = N[C@@H](Cc1ccncc1)C(=O)O; Cha = N[C@@H](CC1CCCCC1)C(=O)O; Cit = NC(=O)NCCC[C@H](N)C(=O)O; dOrn = NCCC[C@@H](N)C(=O)O; Carboxymethyl = O=C(O)C*; Nle = CCCC[C@H](N)C(=O)O; Orn = NCCC[C@H](N)C(=O)O; Pra = C#CC[C@H](N)C(=O)O; Dab = NCC[C@H](N)C(=O)O; Dap = NC[C@H](N)C(=O)O; Bn = c1ccc(C*)cc1
Molecular target: T1, human PD-1 / PD-L1-Ig binding on Jurkat cell line over-expressing human PD-1 (Jurkat-PD-1) (Homo sapiens, UniProt Q15116)
T1 construct: expressed in transfected cells; host or cells: Jurkat
Assay: Jurkat-PD-1 Cell Binding High-Content Screening Assay (CBA)
Type: cell-based
Details: Jurkat HPD1_PDL1 IC50, Jurkat-PD-1 cells, PE-labeled PD-L1-Ig 20 nM final
In short: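 Jurkat-hPD-1 cells in DMEM with 10% fetal calf serum receive test compound and are held at 37° C for 2 h. PE-labeled PD-L1-Ig is added at 20 nM final and left for 1 hour. Cells are then fixed and Hoechst-stained, and binding is measured by imaging.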

T1 sequence (Q15116 25-288): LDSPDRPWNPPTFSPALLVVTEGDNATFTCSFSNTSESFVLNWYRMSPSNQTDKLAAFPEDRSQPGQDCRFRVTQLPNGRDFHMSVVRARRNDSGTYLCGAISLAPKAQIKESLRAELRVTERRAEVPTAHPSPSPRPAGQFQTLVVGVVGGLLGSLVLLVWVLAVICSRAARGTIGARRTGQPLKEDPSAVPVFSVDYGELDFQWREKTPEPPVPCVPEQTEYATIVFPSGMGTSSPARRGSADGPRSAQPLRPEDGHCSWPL

| SMILES | IC50 [µM] |
| --- | --- |
| CC(C)C[C@H]1NC(=O)[C@H](CCCN)NC(=O)[C@H](C(C)C)NC(=O)[C@H](Cc2ccc(-c3ccccc3)cc2)NC(=O)[C@H](Cc2ccc(OCc3ccccc3)cc2)NC(=O)[C@H](Cc2c[nH]c3ccccc23)NC(=O)[C@H](CC(=O)O)NC(=O)[C@H](Cc2ccc(OCC(=O)O)cc2)NC(=O)[C@H](CN)NC(=O)CSC[C@@H](C(=O)N[C@@H](C)C(N)=O)NC(=O)[C@H]([C@@H](C)O)NC(=O)[C@H](C(C)C)NC(=O)[C@H](CC2CCCCC2)NC(=O)[C@H](CCN)NC1=O [Compound 1529] ({CH2CO}-[Dap]Y(Carboxymethyl)DWY(Bn)[Bip]V[Orn][dL][Dab][Cha]VTCA-NH2; thioether N-14) | 0.0435 |

Same assay, conditions: Jurkat-PD-1 cells, PE-labeled PD-L1-Ig 20 nM final; read-out: Jurkat HPD1_PDL1 IC50

| IC50 [µM] | SMILES |
| --- | --- |
| 0.0052 | C#CC[C@H](NC(=O)[C@H](CCN)NC(=O)[C@@H]1CSCC(=O)N[C@@H](CCN)C(=O)N[C@@H](Cc2ccc(OCC(=O)O)cc2)C(=O)N[C@@H](CC(=O)O)C(=O)N[C@@H](Cc2cccc(C)c2)C(=O)N[C@@H](Cc2ccc(OCC(=O)O)cc2)C(=O)N[C@@H](Cc2ccc(-c3ccccc3)cc2)C(=O)N[C@@H](Cc2ccc(OCC(=O)O)cc2)C(=O)N[C@@H](CCCN)C(=O)N[C@H](CC(C)C)C(=O)N[C@@H](CCN)C(=O)N[C@@H](CC2CCCCC2)C(=O)N[C@@H](C(C)(C)O)C(=O)N[C@@H](CO)C(=O)N1)C(N)=O [Compound 1851] ({CH2CO}-[Dab]Y(Carboxymethyl)D[Phe(3-Me)]Y(Carboxymethyl)[Bip]Y(Carboxymethyl)[Orn][dL][Dab][Cha][Val(3-OH)]SC[Dab][Pra]-NH2; thioether N-14) |
| 0.0068 | CCCC[C@@H]1NC(=O)[C@H](CCN)NC(=O)[C@@H](CC(C)C)NC(=O)[C@H](CCCN)NC(=O)[C@H](CCCNC(N)=O)NC(=O)[C@H](Cc2ccc(-c3ccccc3)cc2)NC(=O)[C@H](C(C)C)NC(=O)[C@H](Cc2cccc(C)c2)NC(=O)[C@H](CC(=O)O)NC(=O)[C@H](Cc2ccc(OCC(=O)O)cc2)NC(=O)[C@H](CN)NC(=O)CSC[C@@H](C(=O)N[C@@H](C)C(N)=O)NC(=O)[C@H]([C@@H](C)O)NC(=O)[C@H](C(C)C)NC1=O [Compound 1207] ({CH2CO}-[Dap]Y(Carboxymethyl)D[Phe(3-Me)]V[Bip][Cit][Orn][dL][Dab][Nle]VTCA-NH2; thioether N-14) |
| 0.0041 | CCCC[C@@H]1NC(=O)[C@H](CCN)NC(=O)[C@@H](CC(C)C)NC(=O)[C@H](CCCN)NC(=O)[C@H](C(C)C)NC(=O)[C@H](Cc2ccc(-c3ccccc3)cc2)NC(=O)[C@H](C(C)C)NC(=O)[C@H](Cc2cccc(C)c2)NC(=O)[C@H](CC(=O)O)NC(=O)[C@H](Cc2ccc(OCC(=O)O)cc2)NC(=O)[C@H](Cc2ccncc2)NC(=O)CSC[C@@H](C(=O)N[C@@H](C)C(N)=O)NC(=O)[C@H]([C@@H](C)O)NC(=O)[C@H](C(C)C)NC1=O [Compound 1199] ({CH2CO}-[4Pal]Y(Carboxymethyl)D[Phe(3-Me)]V[Bip]V[Orn][dL][Dab][Nle]VTCA-NH2; thioether N-14) |
| 0.0667 | CC(C)C[C@@H]1NC(=O)[C@H](Cc2c[nH]c3ccccc23)NC(=O)[C@H](CC(=O)O)NC(=O)[C@H](Cc2ccc(O)cc2)NC(=O)[C@H](Cc2ccccc2)NC(=O)CSC[C@@H](C(=O)NCC(N)=O)NC(=O)[C@H](CO)NC(=O)[C@H](C(C)C)NC(=O)[C@H](CC(C)C)NC(=O)[C@H](CCN)NC(=O)[C@@H](C)NC(=O)[C@H](CCN)NC(=O)[C@H](C(C)C)NC(=O)[C@H](Cc2ccc(-c3ccccc3)cc2)NC1=O [Compound 1106] ({CH2CO}-FYDWL[Bip]V[Dab][dA][Dab]LVSCG-NH2; thioether N-14) |
| 0.0195 | CC(C)C[C@@H]1NC(=O)[C@H](CCN)NC(=O)[C@@H](CC(C)C)NC(=O)[C@@H](CCCN)NC(=O)[C@H](C(C)C)NC(=O)[C@H](Cc2ccc(-c3ccccc3)cc2)NC(=O)[C@H](C(C)C)NC(=O)[C@H](Cc2c[nH]c3ccccc23)NC(=O)[C@H](CC(=O)O)NC(=O)[C@H](Cc2ccc(O)cc2)NC(=O)[C@H](CC(N)=O)NC(=O)CSC[C@@H](C(=O)N[C@@H](C)C(N)=O)NC(=O)[C@H]([C@@H](C)O)NC(=O)[C@H](C(C)C)NC1=O [Compound 1027] ({CH2CO}-NYDWV[Bip]V[dOrn][dL][Dab]LVTCA-NH2; thioether N-14) |
| 0.007 | Cc1cccc(C[C@@H]2NC(=O)[C@H](CC(=O)O)NC(=O)[C@H](Cc3ccc(C(=O)O)cc3)NC(=O)[C@H](Cc3ccncc3)NC(=O)CSC[C@@H](C(=O)N[C@@H](C)C(N)=O)NC(=O)[C@H]([C@@H](C)O)NC(=O)[C@H](C(C)C)NC(=O)[C@H](CC3CCCCC3)NC(=O)[C@H](CCN)NC(=O)[C@@H](CC(C)C)NC(=O)[C@H](CCCN)NC(=O)[C@H](CCC(=O)O)NC(=O)[C@H](Cc3ccc(-c4ccccc4)cc3)NC(=O)[C@H](C(C)C)NC2=O)c1 [Compound 1417] |
| 0.0237 | CC(C)C[C@@H]1NC(=O)[C@H](CCN)NC(=O)[C@@H](CC(C)C)NC(=O)[C@H](CCCN)NC(=O)[C@H](CCCNC(N)=O)NC(=O)[C@H](Cc2ccc(-c3ccccc3)cc2)NC(=O)[C@H](C(C)C)NC(=O)[C@H](Cc2c[nH]c3ccccc23)NC(=O)[C@H](CC(N)=O)NC(=O)[C@H](Cc2ccc(O)cc2)NC(=O)[C@H](CN)NC(=O)CSC[C@@H](C(=O)N[C@@H](C)C(N)=O)NC(=O)[C@H]([C@@H](C)O)NC(=O)[C@H](C(C)C)NC1=O [Compound 1088] ({CH2CO}-[Dap]YNWV[Bip][Cit][Orn][dL][Dab]LVTCA-NH2; thioether N-14) |
| 0.0131 | Cc1cccc(C[C@@H]2NC(=O)[C@H](CC(=O)O)NC(=O)[C@H](Cc3ccc(C(=O)O)cc3)NC(=O)[C@H](Cc3ccncc3)NC(=O)CSC[C@@H](C(=O)N[C@H](CC(N)=O)C(N)=O)NC(=O)[C@H](CO)NC(=O)[C@H](C(C)C)NC(=O)[C@H](CC3CCCCC3)NC(=O)[C@H](CCN)NC(=O)[C@@H](CC(C)C)NC(=O)[C@H](CCCN)NC(=O)[C@H](Cc3ccc(OCC(=O)O)cc3)NC(=O)[C@H](Cc3ccc(-c4ccccc4)cc3)NC(=O)[C@H](Cc3ccc(OCC(=O)O)cc3)NC2=O)c1 [Compound 2313] ({CH2CO}-[4Pal][Phe(4-COOH)]D[Phe(3-Me)]Y(Carboxymethyl)[Bip]Y(Carboxymethyl)[Orn][dL][Dab][Cha]VSC[dN]-NH2; thioether N-14) |
| 0.0099 | CC(C)C[C@H]1NC(=O)[C@H](CCCN)NC(=O)[C@H](C(C)C)NC(=O)[C@H](Cc2ccc(-c3ccccc3)cc2)NC(=O)[C@H](C(C)C)NC(=O)[C@H](Cc2c[nH]c3ccccc23)NC(=O)[C@H](CC(=O)O)NC(=O)[C@H](Cc2ccc(C(=O)O)cc2)NC(=O)[C@H](Cc2ccc(OCC(=O)O)cc2)NC(=O)CSC[C@@H](C(=O)N[C@@H](C)C(N)=O)NC(=O)[C@H](CN)NC(=O)[C@H](C(C)C)NC(=O)[C@H](CC2CCCCC2)NC(=O)[C@H](CCN)NC1=O [Compound 1739] ({CH2CO}-Y(Carboxymethyl)[Phe(4-COOH)]DWV[Bip]V[Orn][dL][Dab][Cha]V[Dap]CA-NH2; thioether N-14) |
| 0.0247 | CC[C@H](C)[C@@H]1NC(=O)[C@H](Cc2c[nH]c3ccccc23)NC(=O)[C@H](CC(=O)O)NC(=O)[C@H](Cc2ccc(OCC(=O)O)cc2)NC(=O)[C@H](CN)NC(=O)CSC[C@@H](C(=O)N[C@@H](C)C(N)=O)NC(=O)[C@H]([C@@H](C)O)NC(=O)[C@H](C(C)C)NC(=O)[C@H](CC2CCCCC2)NC(=O)[C@H](CCN)NC(=O)[C@@H](CC(C)C)NC(=O)[C@H](CCCN)NC(=O)[C@H]([C@@H](C)CC)NC(=O)[C@H](Cc2ccc(-c3ccccc3)cc2)NC1=O [Compound 1725] ({CH2CO}-[Dap]Y(Carboxymethyl)DWI[Bip]I[Orn][dL][Dab][Cha]VTCA-NH2; thioether N-14) |
| 0.0394 | CC(C)C[C@@H]1NC(=O)[C@H](Cc2c[nH]c3ccccc23)NC(=O)[C@H](CC(=O)O)NC(=O)[C@H](Cc2ccc(O)cc2)NC(=O)[C@H](Cc2ccccc2)NC(=O)CSC[C@@H](C(=O)N[C@@H](C)C(N)=O)NC(=O)[C@H](CO)NC(=O)[C@H](C(C)C)NC(=O)[C@H](CC(C)C)NC(=O)[C@H](CC(N)=O)NC(=O)[C@@H](C)NC(=O)[C@@H](CCCCN)NC(=O)[C@H](C(C)C)NC(=O)[C@H](Cc2ccc(-c3ccccc3)cc2)NC1=O [Compound 2000] ({CH2CO}-FYDWL[Bip]V[dK][dA]NLVSCA-NH2; thioether N-14) |
| 0.0074 | Cc1cccc(C[C@@H]2NC(=O)[C@H](CC(=O)O)NC(=O)[C@H](Cc3ccc(C(=O)O)cc3)NC(=O)[C@H](Cc3ccc(OCC(=O)O)cc3)NC(=O)CSC[C@@H](C(=O)NCC(N)=O)NC(=O)[C@H](CO)NC(=O)[C@H](C(C)C)NC(=O)[C@H](CC(C)C)NC(=O)[C@H](CCN)NC(=O)[C@@H](CC(C)C)NC(=O)[C@H](CCCN)NC(=O)[C@H](C(C)C)NC(=O)[C@H](Cc3ccc(-c4ccccc4)cc3)NC(=O)[C@H](CC(C)C)NC2=O)c1 [Compound 1260] ({CH2CO}-Y(Carboxymethyl)[Phe(4-COOH)]D[Phe(3-Me)]L[Bip]V[Orn][dL][Dab]LVSCG-NH2; thioether N-14) |
| 0.0389 | CC(C)C[C@@H]1NC(=O)[C@H](CC(N)=O)NC(=O)[C@@H](CC(C)C)NC(=O)[C@H](CN)NC(=O)[C@H](C(C)C)NC(=O)[C@H](Cc2ccc(-c3ccccc3)cc2)NC(=O)[C@H](C(C)C)NC(=O)[C@H](Cc2c[nH]c3ccccc23)NC(=O)[C@H](CC(=O)O)NC(=O)[C@H](Cc2ccc(C(=O)O)cc2)NC(=O)[C@H](Cc2ccc(OCC(=O)O)cc2)NC(=O)CSC[C@@H](C(=O)NCC(N)=O)NC(=O)[C@H](CO)NC(=O)[C@H](C(C)C)NC1=O [Compound 1288] ({CH2CO}-Y(Carboxymethyl)[Phe(4-COOH)]DWV[Bip]V[Dap][dL]NLVSCG-NH2; thioether N-14) |
